Results published in patent publication US7138361B2, “Herbicidal heterocycles” (E. I. du Pont de Nemours and Company, priority 2000, dated 2006).

Experiments:
Assay type in all cases: in vivo
Nightshade = assay: Test C preemergence; settings: visual evaluation after 12 to 14 days
[1] = system: pigweed (Amaranthus retroflexus); assay: Test B preemergence
How it was run: (§1)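 Ratings on a 0 to 100 visual scale (100 complete control) compare treated plants with controls 13 to 15 days after application. Treatments were pre- or postemergence sprays of compound in non-phytotoxic solvent with surfactant.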

[2] = system: cocklebur (Xanthium strumarium); assay: Test B preemergence
How it was run: as §1

rice (Oryza saliva) [3] = assay: Test B preemergence
How it was run: as §1

corn (Zea mays) [4] = assay: Test B preemergence
How it was run: as §1

[5] = system: crabgrass (Digitaria sanguinalis); assay: Test B preemergence
How it was run: as §1

[6] = system: Surinam grass (Brachiaria decumbens); assay: Test B preemergence
How it was run: as §1

[7] = system: barnyardgrass (Echinochloa crus-galli); assay: Test B preemergence
How it was run: as §1

[8] = system: giant foxtail (Setaria faberii); assay: Test B preemergence
How it was run: as §1

[9] = system: morning glory (Ipomoea hederacea); assay: Test B preemergence
How it was run: as §1

[10] = system: lambsquarters (Chenopodium album); assay: Test B preemergence
How it was run: as §1

[11] = system: velvetleaf (Abutilon theophrasti); assay: Test B preemergence
How it was run: as §1

Sunflower = assay: Test C preemergence; settings: scale 0 to 100, 0 no effect, 100 complete control
rice (Oryza saliva) [12] = assay: Test C flooded paddy test; settings: for Rice plant response rating: Flooded Paddy, scale 0 to 100, 0 no effect, 100 complete control; for Plant response rating, Rice: flooded paddy test, scale 0 to 100 (0 no effect, 100 complete control)
How it was run: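 Visual injury score, 0 (no effect) to 100 (complete control), relative to controls. Paddy plants treated at 2-leaf stage; greenhouse hold 12–14 d before rating.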

[13] = system: blackgrass (Alopecurus myosuroides); assay: Test B postemergence
How it was run: as §1

[14] = system: wheat (Triticum aestivum); assay: Test B postemergence
How it was run: as §1

[15] = system: pigweed (Amaranthus retroflexus); assay: Test B postemergence
How it was run: as §1

[16] = system: cocklebur (Xanthium strumarium); assay: Test B postemergence
How it was run: as §1

wild oat (Avena fatua) = assay: Test B postemergence
How it was run: as §1

corn (Zea mays) [17] = assay: Test B postemergence
How it was run: as §1

[18] = system: crabgrass (Digitaria sanguinalis); assay: Test B postemergence
How it was run: as §1

[19] = system: Surinam grass (Brachiaria decumbens); assay: Test B postemergence
How it was run: as §1

[20] = system: barnyardgrass (Echinochloa crus-galli); assay: Test B postemergence
How it was run: as §1

[21] = system: giant foxtail (Setaria faberii); assay: Test B postemergence
How it was run: as §1

[22] = system: morning glory (Ipomoea hederacea); assay: Test B postemergence
How it was run: as §1

[23] = system: lambsquarters (Chenopodium album); assay: Test B postemergence
How it was run: as §1

[24] = system: velvetleaf (Abutilon theophrasti); assay: Test B postemergence
How it was run: as §1

[25] = Preemergence, Rate 500 g/ha, scale 0 to 100, 0 no effect, 100 complete control
[26] = preemergence, Rate 125 g/ha, scale of 0 to 100 where 0 is no effect and 100 is complete control, 13 to 15 days
[27] = Rate 125 g/ha, scale 0 to 100, 0 no effect, 100 complete control
[28] = Rate 500 g/ha, scale 0 to 100, 0 is no effect, 100 is complete control, 13 to 15 days
[29] = preemergence, Rate 125 g/ha, scale 0 to 100, 0 no effect, 100 complete control
[30] = Rate 125 g/ha, scale 0 (no effect) to 100 (complete control), 13 to 15 days

Compound: CCC(C)Oc1cccc(N2CCC(n3ccc(C(C)(C)C)n3)C2=O)c1 (stereo not drawn) [Compound 127]
- Plant response rating (0 to 100), Nightshade (Nightshade; Rate 500 g/ha): 100
- Plant response rating, Pigweed [1, 25]: 100
- Plant response rating, Pigweed [1, 26]: 0
- Plant response rating, Cocklebur [2, 25]: 0
- Plant response rating, Cocklebur [2, 26]: 0
- Plant response rating, Rice (rice (Oryza saliva) [3]; [25]): 50
- Plant response rating, Rice (rice (Oryza saliva) [3]; [26]): 0
- Plant response rating, Corn (corn (Zea mays) [4]; [25]): 0
- Plant response rating, Corn (corn (Zea mays) [4]; [26]): 0
- Plant response rating, Crabgrass [5, 25]: 100
- Plant response rating, Crabgrass [5, 26]: 100
- Plant response rating, Surinam grass [6, 25]: 70
- Plant response rating, Surinam grass [6, 26]: 0
- Plant response rating, Barnyardgrass [7, 25]: 100
- Plant response rating, Barnyardgrass [7, 26]: 0
- Plant response rating, Foxtail, Giant [8, 25]: 100
- Plant response rating, Foxtail, Giant [8, 26]: 70
- Plant response rating, Morningglory [9, 25]: 0
- Plant response rating, Morningglory [9, 26]: 0
- Plant response rating, Lambsquarters [10, 25]: 100
- Plant response rating, Lambsquarters [10, 26]: 90
- Plant response rating, Velvetleaf [11, 25]: 0
- Plant response rating, Velvetleaf [11, 26]: 0
- Plant response rating, Sunflower (Sunflower; Rate 250 g/ha): 0
- Rice plant response rating (rice (Oryza saliva) [12]; Rate 250 g/ha): 0
- Rice plant response rating (rice (Oryza saliva) [12]; Rate 500 g/ha): 0
- Plant response rating, Rice (rice (Oryza saliva) [12]; Rate 62 g/ha): 0
- Plant response rating, Rice (rice (Oryza saliva) [12]; Rate 125 g/ha): 0
- Plant response rating, Blackgrass [13, 27]: 0
- Plant response rating, Blackgrass [13, 28]: 0
- Plant response rating, Wheat [14, 27]: 0
- Plant response rating, Pigweed [15, 27]: 0
- Plant response rating, Cocklebur [16, 27]: 0
- Plant response rating, Cocklebur [16, 28]: 60
- Plant response rating, Wild Oat (wild oat (Avena fatua); [27]): 0
- Plant response rating, Corn (corn (Zea mays) [17]; [27]): 0
- Plant response rating, Corn (corn (Zea mays) [17]; [28]): 0
- Plant response rating, Crabgrass [18, 27]: 0
- Plant response rating, Surinam grass [19, 27]: 0
- Plant response rating, Surinam grass [19, 28]: 0
- Plant response rating, Barnyardgrass [20, 27]: 0
- Plant response rating, Barnyardgrass [20, 28]: 0
- Plant response rating, Foxtail, Giant [21, 27]: 0
- Plant response rating, Morningglory [22, 27]: 0
- Plant response rating, Lambsquarters [23, 27]: 30
- Plant response rating, Velvetleaf [24, 27]: 0

Compound: O=C1C(n2ccc(C3CCC3)n2)OCN1c1cccc(C(F)(F)F)c1 (stereo not drawn) [Compound 39]
- Plant response rating (0 to 100), Nightshade (Nightshade; Rate 250 g/ha): 0
- Plant response rating, Pigweed [1, 25]: 100
- Plant response rating, Cocklebur [2, 25]: 0
- Plant response rating, Cocklebur [2, 29]: 0
- Plant response rating, Rice (rice (Oryza saliva) [3]; [25]): 0
- Plant response rating, Corn (corn (Zea mays) [4]; [25]): 0
- Plant response rating, Corn (corn (Zea mays) [4]; [29]): 0
- Plant response rating, Crabgrass [5, 25]: 100
- Plant response rating, Crabgrass [5, 29]: 0
- Plant response rating, Surinam grass [6, 25]: 20
- Plant response rating, Surinam grass [6, 29]: 20
- Plant response rating, Barnyardgrass [7, 25]: 100
- Plant response rating, Barnyardgrass [7, 29]: 50
- Plant response rating, Foxtail, Giant [8, 25]: 100
- Plant response rating, Foxtail, Giant [8, 29]: 30
- Plant response rating, Morningglory [9, 25]: 0
- Plant response rating, Lambsquarters [10, 25]: 100
- Plant response rating, Lambsquarters [10, 29]: 100
- Plant response rating, Velvetleaf [11, 25]: 0
- Plant response rating, Sunflower (Sunflower; Rate 125 g/ha): 0
- Rice plant response rating (rice (Oryza saliva) [12]; Rate 250 g/ha): 0
- Rice plant response rating (rice (Oryza saliva) [12]; Rate 500 g/ha): 70
- Plant response rating, Rice (rice (Oryza saliva) [12]; Rate 62 g/ha): 0
- Plant response rating, Rice (rice (Oryza saliva) [12]; Rate 125 g/ha): 0
- Plant response rating, Blackgrass [13, 30]: 0
- Plant response rating, Blackgrass [13, 28]: 0
- Plant response rating, Wheat [14, 30]: 0
- Plant response rating, Wheat [14, 28]: 0
- Plant response rating, Pigweed [15, 30]: 60
- Plant response rating, Pigweed [15, 28]: 90
- Plant response rating, Cocklebur [16, 30]: 0
- Plant response rating, Cocklebur [16, 28]: 0
- Plant response rating, Wild Oat (wild oat (Avena fatua); [30]): 0
- Plant response rating, Wild Oat (wild oat (Avena fatua); [28]): 0
- Plant response rating, Corn (corn (Zea mays) [17]; [30]): 0
- Plant response rating, Corn (corn (Zea mays) [17]; [28]): 10
- Plant response rating, Crabgrass [18, 30]: 0
- Plant response rating, Crabgrass [18, 28]: 70
- Plant response rating, Surinam grass [19, 30]: 0
- Plant response rating, Surinam grass [19, 28]: 0
- Plant response rating, Barnyardgrass [20, 30]: 0
- Plant response rating, Barnyardgrass [20, 28]: 100
- Plant response rating, Foxtail, Giant [21, 30]: 0
- Plant response rating, Foxtail, Giant [21, 28]: 0
- Plant response rating, Morningglory [22, 30]: 0
- Plant response rating, Morningglory [22, 28]: 0
- Plant response rating, Lambsquarters [23, 30]: 70
- Plant response rating, Lambsquarters [23, 28]: 90
- Plant response rating, Velvetleaf [24, 30]: 0
- Plant response rating, Velvetleaf [24, 28]: 0

Compound: CCC(CC)c1ccn(C2CCN(c3cccc(OC)c3)C2=O)n1 (stereo not drawn) [Compound 96]
- Plant response rating (0 to 100), Nightshade (Nightshade; Rate 500 g/ha): 80
- Plant response rating, Pigweed [1, 25]: 100
- Plant response rating, Pigweed [1, 26]: 100
- Plant response rating, Cocklebur [2, 25]: 30
- Plant response rating, Cocklebur [2, 26]: 20
- Plant response rating, Rice (rice (Oryza saliva) [3]; [25]): 100
- Plant response rating, Rice (rice (Oryza saliva) [3]; [26]): 70
- Plant response rating, Corn (corn (Zea mays) [4]; [25]): 20
- Plant response rating, Corn (corn (Zea mays) [4]; [26]): 0
- Plant response rating, Crabgrass [5, 25]: 100
- Plant response rating, Crabgrass [5, 26]: 100
- Plant response rating, Surinam grass [6, 25]: 80
- Plant response rating, Surinam grass [6, 26]: 50
- Plant response rating, Barnyardgrass [7, 25]: 100
- Plant response rating, Barnyardgrass [7, 26]: 100
- Plant response rating, Foxtail, Giant [8, 25]: 100
- Plant response rating, Foxtail, Giant [8, 26]: 100
- Plant response rating, Morningglory [9, 25]: 80
- Plant response rating, Morningglory [9, 26]: 0
- Plant response rating, Lambsquarters [10, 25]: 100
- Plant response rating, Lambsquarters [10, 26]: 100
- Plant response rating, Velvetleaf [11, 25]: 50
- Plant response rating, Velvetleaf [11, 26]: 0
- Plant response rating, Sunflower (Sunflower; Rate 250 g/ha): 50
- Rice plant response rating (rice (Oryza saliva) [12]; Rate 250 g/ha): 50
- Rice plant response rating (rice (Oryza saliva) [12]; Rate 500 g/ha): 60
- Plant response rating, Rice (rice (Oryza saliva) [12]; Rate 62 g/ha): 0
- Plant response rating, Rice (rice (Oryza saliva) [12]; Rate 125 g/ha): 0
- Plant response rating, Blackgrass [13, 30]: 0
- Plant response rating, Blackgrass [13, 28]: 0
- Plant response rating, Wheat [14, 28]: 0
- Plant response rating, Pigweed [15, 28]: 90
- Plant response rating, Cocklebur [16, 30]: 10
- Plant response rating, Cocklebur [16, 28]: 20
- Plant response rating, Wild Oat (wild oat (Avena fatua); [28]): 0
- Plant response rating, Corn (corn (Zea mays) [17]; [30]): 0
- Plant response rating, Corn (corn (Zea mays) [17]; [28]): 0
- Plant response rating, Crabgrass [18, 30]: 20
- Plant response rating, Crabgrass [18, 28]: 70
- Plant response rating, Surinam grass [19, 30]: 0
- Plant response rating, Surinam grass [19, 28]: 0
- Plant response rating, Barnyardgrass [20, 30]: 0
- Plant response rating, Barnyardgrass [20, 28]: 90
- Plant response rating, Foxtail, Giant [21, 30]: 0
- Plant response rating, Foxtail, Giant [21, 28]: 40
- Plant response rating, Morningglory [22, 28]: 50
- Plant response rating, Lambsquarters [23, 28]: 90
- Plant response rating, Velvetleaf [24, 28]: 10
